Laboratory results as given in US20250000903A1, “EXPANSION PROCESSES AND AGENTS FOR TUMOR INFILTRATING LYMPHOCYTES” (Iovance Biotherapeutics, Inc., priority 2021, published 2025).

Tests used:
Format in all cases: cell-based, human
[1] = tested on: tumor-infiltrating lymphocytes (TIL); experiment: Functional characteristics of final TIL product expanded with AKTi; conditions: AKTi treatment during ex vivo expansion
Procedure: (§1) Patient tumors from different indications were received, fragmented, and subjected to an expansion protocol for TIL manufacturing. Different doses (0.3 μM and 1 μM) of the pan-AKT inhibitor (AKTi) ipatasertib were added to the culture during ex vivo expansion. The expansion potential, as well as the phenotypic and functional characteristics of TIL were evaluated on the final TIL product.

[2] = tested on: tumor-infiltrating lymphocytes (TIL); experiment: Phenotypic characteristics of final TIL product expanded with AKTi; conditions: AKTi 1 μM
Procedure: as §1

[3] = tested on: tumor-infiltrating lymphocytes (TIL); experiment: TIL ex vivo expansion with AKTi ipatasertib: expansion and viability; conditions: AKTi 1 μM during ex vivo expansion
Procedure: as §1

In the case of `CC(C)NC[C@@H](C(=O)N1CCN(c2ncnc3c2[C@H](C)C[C@H]3O)CC1)c1ccc(Cl)cc1` [AKTi, ipatasertib], the cytotoxicity [1] is reported as “increased”, the “frequency of IFNγ+TNFα+CD8+ T cells” value [1] is reported as “increase” and the “expression of CD38 and the transcription factors T-bet and Tox” value ([2]; CD39-CD69- cells) is reported as “reduced”. For the same compound, the “population of less differentiated CD39-CD69- cells” value ([2]; present even after re-stimulation) was “doubled”, the “expansion of TIL relative to control” value [3] was “equivalent” and the “viability of TIL relative to control” value [3] was “equivalent”.
